Results as given in US20250215012A1, “IKZF2 DEGRADERS AND USES THEREOF” (REGENTS OF THE UNIVERSITY OF MICHIGAN, priority 2022, published 2025).

Target: IKZF2 (Homo sapiens (Human), UniProt Q96SW2+Q9UKS7)
Assay: IKZF2 HiBiT Assay (Jurkat-IKZF2-HiBiT cell line)
Assay type: cell-based
Details: Jurkat-IKZF2-HiBiT cells, 24 hours; for DC50: read-out: HiBit assay degradation analysis DC50; for Dmax: read-out: HiBit assay degradation analysis Dmax
Description: Degradation of IKZF2 protein is determined by IKZF2 HiBiT assay using the Jurkat-IKZF2-HiBiT (Promega) cell line. Briefly, cells are seeded in culture medium. Compounds are serially diluted in culture medium, and certain volume of the diluted compounds is added to the appropriate well of the plate. After the addition of compounds, the cells are incubated. At the end of treatment, Nano-Glo HiBiT Lytic Detection Reagent (Promega) is added to each well, and then the plates are incubated at room temperature for a certain time period. The luminescent signal is measured using a CALRIOstar plate reader (BMG Labtech). The readings are normalized to the DMSO-treated cells and the IC50 is calculated by nonlinear regression (four parameters sigmoid fitted with variable slope, least squares fit, and no constraint) analysis using the GraphPad Prism 8 software.
Degradation of IKZF2 protein was determined by IKZF2 HiBiT assay using the Jurkat-IKZF2-HiBiT (Promega) cell line. […] Compounds were serially diluted in culture medium, and 20 μl of the diluted compounds were added to the appropriate wells of the plate. After the addition of compounds, the cells were incubated at 37° C. in an atmosphere of 5% CO2 for 24 hours. At the end of treatment, 40 ul of Nano-Glo HiBiT Lytic Detection Reagent (Promega) was added to each well, and then the plates were incubated at room temperature for 10-20 minutes. The luminescent signal was measured using a CALRIOstar plate reader (BMG Labtech). The readings were normalized to the DMSO-treated cells and the IC50 was calculated by nonlinear regression (four parameters sigmoid fitted with variable slope, least squares fit, and no constraint) analysis using the GraphPad Prism 8 software.

Chain of IKZF2 (Q9UKS7 whole entry): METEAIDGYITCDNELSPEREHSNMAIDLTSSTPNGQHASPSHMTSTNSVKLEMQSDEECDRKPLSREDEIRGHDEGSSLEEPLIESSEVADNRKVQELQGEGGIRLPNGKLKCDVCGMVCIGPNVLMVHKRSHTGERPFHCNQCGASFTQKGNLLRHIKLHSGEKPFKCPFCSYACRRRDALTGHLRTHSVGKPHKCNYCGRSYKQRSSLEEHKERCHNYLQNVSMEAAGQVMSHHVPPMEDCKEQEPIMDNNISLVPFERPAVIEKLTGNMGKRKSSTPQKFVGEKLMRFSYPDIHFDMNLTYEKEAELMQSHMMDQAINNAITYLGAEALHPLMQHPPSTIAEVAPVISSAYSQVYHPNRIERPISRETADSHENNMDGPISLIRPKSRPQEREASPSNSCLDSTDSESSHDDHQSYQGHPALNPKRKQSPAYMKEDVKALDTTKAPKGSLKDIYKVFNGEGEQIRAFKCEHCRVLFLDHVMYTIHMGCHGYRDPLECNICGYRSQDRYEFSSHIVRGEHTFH
Chain of IKZF2 (Q96SW2 whole entry): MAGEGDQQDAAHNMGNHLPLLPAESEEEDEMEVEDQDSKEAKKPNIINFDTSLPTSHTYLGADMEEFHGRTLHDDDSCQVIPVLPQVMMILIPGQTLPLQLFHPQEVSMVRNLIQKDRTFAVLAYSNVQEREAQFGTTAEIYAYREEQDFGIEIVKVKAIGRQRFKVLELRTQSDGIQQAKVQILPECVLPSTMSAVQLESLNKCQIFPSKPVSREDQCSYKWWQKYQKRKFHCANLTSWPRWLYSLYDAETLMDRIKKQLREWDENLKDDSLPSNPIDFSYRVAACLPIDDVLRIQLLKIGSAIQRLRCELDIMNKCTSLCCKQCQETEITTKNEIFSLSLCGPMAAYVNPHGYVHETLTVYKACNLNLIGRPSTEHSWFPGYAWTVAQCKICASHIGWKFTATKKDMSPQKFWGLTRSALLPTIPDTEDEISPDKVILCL
Chain of IKZF2 (Q16531 whole entry partner): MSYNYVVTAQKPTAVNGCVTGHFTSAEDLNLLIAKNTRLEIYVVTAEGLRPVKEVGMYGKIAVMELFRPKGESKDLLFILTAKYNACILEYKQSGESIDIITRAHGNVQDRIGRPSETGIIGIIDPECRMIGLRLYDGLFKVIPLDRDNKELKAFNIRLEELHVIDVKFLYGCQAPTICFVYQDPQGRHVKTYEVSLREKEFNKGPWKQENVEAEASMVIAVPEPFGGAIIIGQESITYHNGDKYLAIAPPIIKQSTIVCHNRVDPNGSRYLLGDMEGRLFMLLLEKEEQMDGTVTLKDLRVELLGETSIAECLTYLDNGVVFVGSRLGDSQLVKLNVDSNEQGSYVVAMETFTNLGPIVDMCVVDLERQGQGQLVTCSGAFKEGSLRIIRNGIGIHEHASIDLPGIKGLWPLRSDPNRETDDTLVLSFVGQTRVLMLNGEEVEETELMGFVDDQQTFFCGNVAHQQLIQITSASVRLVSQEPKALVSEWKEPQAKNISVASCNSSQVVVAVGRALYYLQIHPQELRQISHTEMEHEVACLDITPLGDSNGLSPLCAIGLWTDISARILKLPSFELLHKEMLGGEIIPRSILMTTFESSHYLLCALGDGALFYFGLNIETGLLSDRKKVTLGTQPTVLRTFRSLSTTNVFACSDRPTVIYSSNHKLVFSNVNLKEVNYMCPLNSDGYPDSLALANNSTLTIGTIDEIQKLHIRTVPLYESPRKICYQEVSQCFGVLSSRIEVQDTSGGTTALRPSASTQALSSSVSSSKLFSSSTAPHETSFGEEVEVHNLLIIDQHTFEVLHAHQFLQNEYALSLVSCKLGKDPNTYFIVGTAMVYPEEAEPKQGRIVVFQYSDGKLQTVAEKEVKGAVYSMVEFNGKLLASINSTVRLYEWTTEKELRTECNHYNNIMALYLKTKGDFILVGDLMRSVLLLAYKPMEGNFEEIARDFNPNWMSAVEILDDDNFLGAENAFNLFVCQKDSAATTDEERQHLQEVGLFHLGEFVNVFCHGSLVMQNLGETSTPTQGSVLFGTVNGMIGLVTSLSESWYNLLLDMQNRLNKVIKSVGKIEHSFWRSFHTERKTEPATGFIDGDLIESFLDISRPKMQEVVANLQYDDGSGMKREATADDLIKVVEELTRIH

SMILES	DC50 [µM]	Dmax [%]
O=C1CCC(N2Cc3c(ccc4c3OCC43CCN(Cc4ccnn4-c4ccccc4)CC3)C2=O)C(=O)N1 (stereo not drawn) [Compound A246, 3-(6-oxo-1′-((1-phenyl-1H-pyrazol-5-yl)methyl)-6,8-dihydro-2H,7H-spiro[furo[2,3-e]isoindole-3,4′-piperidin]-7-yl)piperidine-2,6-dione]	> 0.5	< 40
O=C1CC[C@H](N2Cc3c(ccc4c3OCC43CCN(Cc4cccc(-c5ccn(C(F)F)n5)c4)CC3)C2=O)C(=O)N1 [Compound A289, (S)-3-(1′-(3-(1-(difluoromethyl)-1H-pyrazol-3-yl)benzyl)-6-oxo-6,8-dihydro-2H,7H-spiro[furo[2,3-e]isoindole-3,4′-piperidin]-7-yl)piperidine-2,6-dione]	< 0.05	60 to 80
O=C1CCC(N2Cc3c(ccc4c3OCC43CCN(Cc4ccc(Cl)c5ccccc45)CC3)C2=O)C(=O)N1 (stereo not drawn) [Compound A37, 3-(1′-((4-chloronaphthalen-1-yl)methyl)-6-oxo-6,8-dihydro-2H,7H-spiro[furo[2,3-e]isoindole-3,4′-piperidin]-7-yl)piperidine-2,6-dione]	> 0.5	40 to 60
Cn1ncc2cc(F)c(CN3CCC4(CC3)COc3c4ccc4c3CN(C3CCC(=O)NC3=O)C4=O)cc21 (stereo not drawn) [Compound A140, 3-(1′-((5-fluoro-1-methyl-1H-indazol-6-yl)methyl)-6-oxo-6,8-dihydro-2H,7H-spiro[furo[2,3-e]isoindole-3,4′-piperidin]-7-yl)piperidine-2,6-dione]	> 0.5	40 to 60
O=C1CCC(N2Cc3c(ccc4c3OCC43CCN(Cc4ccccc4Oc4ccccc4)CC3)C2=O)C(=O)N1 (stereo not drawn) [Compound A100, 3-(6-oxo-1′-(2-phenoxybenzyl)-6,8-dihydro-2H,7H-spiro[furo[2,3-e]isoindole-3,4′-piperidin]-7-yl)piperidine-2,6-dione]	> 0.5	< 40
Cn1nccc1-c1cccc(CN2CCC3(CC2)COc2c3ccc3c2CN(C2CCC(=O)NC2=O)C3=O)c1 (stereo not drawn) [Compound A144, 3-(1′-(3-(1-methyl-1H-pyrazol-5-yl)benzyl)-6-oxo-6,8-dihydro-2H,7H-spiro[furo[2,3-e]isoindole-3,4′-piperidin]-7-yl)piperidine-2,6-dione]	0.2 to 0.5	40 to 60
O=C1CC[C@H](N2Cc3c(ccc4c3OCC43CCN(Cc4cccc(-c5cc[nH]n5)c4)CC3)C2=O)C(=O)N1 [Compound A290, (S)-3-(1′-(3-(1H-pyrazol-3-yl)benzyl)-6-oxo-6,8-dihydro-2H,7H-spiro[furo[2,3-e]isoindole-3,4′-piperidin]-7-yl)piperidine-2,6-dione]	< 0.05	60 to 80
O=C1CCC(N2Cc3c(ccc4c3OCC43CCN(Cc4nccc5ccccc45)CC3)C2=O)C(=O)N1 (stereo not drawn) [Compound A42, 3-(1′-(isoquinolin-1-ylmethyl)-6-oxo-6,8-dihydro-2H,7H-spiro[furo[2,3-e]isoindole-3,4′-piperidin]-7-yl)piperidine-2,6-dione]	> 0.5	< 40
N#Cc1ccc(-n2cc(CN3CCC4(CC3)COc3c4ccc4c3CN([C@H]3CCC(=O)NC3=O)C4=O)cn2)cc1 [Compound A359, (S)-4-(4-((7-(2,6-dioxopiperidin-3-yl)-6-oxo-7,8-dihydro-2H,6H-spiro[furo[2,3-e]isoindole-3,4′-piperidin]-1′-yl)methyl)-1H-pyrazol-1-yl)benzonitrile]	< 0.05	60 to 80
CC1(C)CCC(CN2CCC3(CC2)COc2c3ccc3c2CN(C2CCC(=O)NC2=O)C3=O)CC1 (stereo not drawn) [Compound A19, 3-(1′-((4,4-dimethylcyclohexyl)methyl)-6-oxo-6,8-dihydro-2H,7H-spiro[furo[2,3-e]isoindole-3,4′-piperidin]-7-yl)piperidine-2,6-dione]	> 0.5	< 40
O=C1CCC(N2Cc3c(ccc4c3OCC43CCN(Cc4cccc(-c5cnn(C6CC6)c5)c4)CC3)C2=O)C(=O)N1 (stereo not drawn) [Compound A174, 3-(1′-(3-(1-cyclopropyl-1H-pyrazol-4-yl)benzyl)-6-oxo-6,8-dihydro-2H,7H-spiro[furo[2,3-e]isoindole-3,4′-piperidin]-7-yl)piperidine-2,6-dione]	< 0.05	60 to 80
O=C1CCC(N2Cc3c(ccc4c3OCC43CCN(Cc4ccn(-c5ccccc5)n4)CC3)C2=O)C(=O)N1 (stereo not drawn) [Compound A251, 3-(6-oxo-1′-((1-phenyl-1H-pyrazol-3-yl)methyl)-6,8-dihydro-2H,7H-spiro[furo[2,3-e]isoindole-3,4′-piperidin]-7-yl)piperidine-2,6-dione]	> 0.5	< 40
O=C1CCC(N2Cc3c(ccc4c3OCC43CCN(CC4(c5ccccc5)CCC4)CC3)C2=O)C(=O)N1 (stereo not drawn) [Compound A334, 3-(6-oxo-1′-((1-phenylcyclobutyl)methyl)-6,8-dihydro-2H,7H-spiro[furo[2,3-e]isoindole-3,4′-piperidin]-7-yl)piperidine-2,6-dione]	> 0.5	40 to 60
Cn1ccc(COc2cccc(CN3CCC4(CC3)COc3c4ccc4c3CN(C3CCC(=O)NC3=O)C4=O)c2)n1 (stereo not drawn) [Compound A167, 3-(1′-(3-((1-methyl-1H-pyrazol-3-yl)methoxy)benzyl)-6-oxo-6,8-dihydro-2H,7H-spiro[furo[2,3-e]isoindole-3,4′-piperidin]-7-yl)piperidine-2,6-dione]	0.05 to 0.2	40 to 60
COc1cc(CN2CCC3(CC2)COc2c3ccc3c2CN([C@H]2CCC(=O)NC2=O)C3=O)cc(-c2cnn(C)c2)c1 [Compound A280, (S)-3-(1′-(3-methoxy-5-(1-methyl-1H-pyrazol-4-yl)benzyl)-6-oxo-6,8-dihydro-2H,7H-spiro[furo[2,3-e]isoindole-3,4′-piperidin]-7-yl)piperidine-2,6-dione]	< 0.05	> 80
O=C1CCC(N2Cc3c(ccc4c3OCC43CCN(CC4CCC(F)(F)CC4)CC3)C2=O)C(=O)N1 (stereo not drawn) [Compound A17, 3-(1′-((4,4-difluorocyclohexyl)methyl)-6-oxo-6,8-dihydro-2H,7H-spiro[furo[2,3-e]isoindole-3,4′-piperidin]-7-yl)piperidine-2,6-dione]	> 0.5	40 to 60
O=C1CCC(N2Cc3c(ccc4c3OCC43CCN(Cc4ccc5cnccc5c4)CC3)C2=O)C(=O)N1 (stereo not drawn) [Compound A65, 3-(1′-(isoquinolin-6-ylmethyl)-6-oxo-6,8-dihydro-2H,7H-spiro[furo[2,3-e]isoindole-3,4′-piperidin]-7-yl)piperidine-2,6-dione]	> 0.5	40 to 60
O=C1CCC(N2Cc3c(ccc4c3OCC43CCN(Cc4ccc(F)cc4Cl)CC3)C2=O)C(=O)N1 (stereo not drawn) [Compound A6, 3-(1′-(2-chloro-4-fluorobenzyl)-6-oxo-6,8-dihydro-2H,7H-spiro[furo[2,3-e]isoindoline-3,4′-piperidin]-7-yl)piperidine-2,6-dione]	> 0.5	< 40
COc1cccc(CN2CCC3(CC2)COc2c3ccc3c2CN(C2CCC(=O)NC2=O)C3=O)c1 (stereo not drawn) [Compound A212, 3-(1′-(3-methoxybenzyl)-6-oxo-6,8-dihydro-2H,7H-spiro[furo[2,3-e]isoindole-3,4′-piperidin]-7-yl)piperidine-2,6-dione]	> 0.5	40 to 60
O=C1CCC(N2Cc3c(ccc4c3OCC43CCN(Cc4ccc(OC(F)F)cc4)CC3)C2=O)C(=O)N1 (stereo not drawn) [Compound A197, 3-(1′-(4-(difluoromethoxy)benzyl)-6-oxo-6,8-dihydro-2H,7H-spiro[furo[2,3-e]isoindole-3,4′-piperidin]-7-yl)piperidine-2,6-dione]	> 0.5	< 40
O=C1CCC(N2Cc3c(ccc4c3OCC43CCN(Cc4cccc5c4NC(=O)C5)CC3)C2=O)C(=O)N1 (stereo not drawn) [Compound A152, 3-(6-oxo-1′-((2-oxoindolin-7-yl)methyl)-6,8-dihydro-2H,7H-spiro[furo[2,3-e]isoindole-3,4′-piperidin]-7-yl)piperidine-2,6-dione]	0.05 to 0.2	60 to 80
O=C1CCC(N2Cc3c(ccc4c3OCC43CCN(Cc4cccc(NS(=O)(=O)c5ccccc5)c4)CC3)C2=O)C(=O)N1 (stereo not drawn) [Compound A261, N-(3-((7-(2,6-dioxopiperidin-3-yl)-6-oxo-7,8-dihydro-2H,6H-spiro[furo[2,3-e]isoindole-3,4′-piperidin]-1′-yl)methyl)phenyl)benzenesulfonamide]	> 0.5	< 40
Cn1cc(-c2cccc(CN3CCC4(CC3)CNc3c4ccc4c3CN(C3CCC(=O)NC3=O)C4=O)c2)cn1 (stereo not drawn) [Compound A309, 3-(1-(3-(1-methyl-1H-pyrazol-4-yl)benzyl)-6′-oxo-1′,2′,6′,8′-tetrahydro-7′H-spiro[piperidine-4,3′-pyrrolo[3,4-g]indol]-7′-yl)piperidine-2,6-dione]	> 0.5	40 to 60
O=C1CCC(N2Cc3c(ccc4c3OCC43CCN(Cc4cccc5c(F)cccc45)CC3)C2=O)C(=O)N1 (stereo not drawn) [Compound A35, 3-(1′-((5-fluoronaphthalen-1-yl)methyl)-6-oxo-6,8-dihydro-2H,7H-spiro[furo[2,3-e]isoindole-3,4′-piperidin]-7-yl)piperidine-2,6-dione]	< 0.05	> 80
